Assay results published in patent US6824928B2, “Organic borate compounds and the nonaqueous electrolytes and lithium secondary batteries using the compounds” (Hitachi, Ltd., priority 2000, dated 2004).
Read-outs that look alike come from different tables or passages of the source.

Key:
[1] = 1 M in PC; platinum working electrode, lithium counter/reference; sweep 10 mV/sec
Description: By use of these nonaqueous electrolytes, the respective oxidation decomposition potential values have been compared using the method described below.

[2] = Electroconductivity in fluorinated solvent B (HFE7100/DMC 80:20); assay type: physicochemical; details: for concentration at which maximum electroconductivity was obtained / maximum electroconductivity / electroconductivity (result in words): solvent B: HFE7100/DMC 80:20; for improvement of electroconductivity: solvent B, versus LiN (SO2CF3)2
[3] = for improvement of electroconductivity by factor: solvent A, versus lithium bis-salicylate borate (comparative example 1)
[4] = solvent B: HFE7100/DMC 80:20; salt dissolved to 0.1 M
[5] = 1 M in PC; versus comparative example 8

| Molecule | potential from which significant changes in oxidation current are observed (oxidation decomposition potential) [1] | concentration at which maximum electroconductivity was obtained [2] | maximum electroconductivity [2] | concentration at which maximum electroconductivity was obtained ([3]; solvent A: PC/DMC 1:2) | maximum electroconductivity ([3]; solvent A: PC/DMC 1:2) | improvement of electroconductivity by factor [3] | further results |
| --- | --- | --- | --- | --- | --- | --- | --- |
| O=S(=O)([N-]S(=O)(=O)C(F)(F)F)C(F)(F)F.[Li+] [LiN (SO2CF3)2, lithium bis-(trifluoromethanesulfonyl)imide, reference compound] | 5.8 V | 1 M | 0.69 mS/cm |  |  |  |  |
| O=C(O[B-](OC(=O)C(F)(F)F)(OC(=O)C(F)(F)F)OC(=O)C(F)(F)F)C(F)(F)F.[Li+] [LB1, Lithium Tetrakis (Trifluoroacetate) Borate] | 6.7 V | 0.8 M | 1.55 mS/cm | 0.8 M | 7.8 mS/cm | up to 18 | improvement of electroconductivity [2]: 2.2 times |
| F[B-](F)(F)F.[Li+] [LiBF4, lithium tetrafluoroborate, reference compound] |  |  |  |  |  |  | phase behaviour of the solution [4]: the phase of the solvent has separated into two layers; electroconductivity (result in words) [2]: no electroconductivity has been measurable |
| Tetraethyl Ammonium Tetrakis (Trifluoroacetate) Borate [AB1] |  |  |  |  |  |  | increase of potential window at the oxidation side [5]: 0.5 V |
| CC(=O)O[B-](OC(C)=O)(OC(C)=O)OC(C)=O.[Li+] [LB4, Lithium Tetrakis (Acetate) Borate] |  |  |  |  |  |  | electroconductivity of the nonaqueous electrolyte ([3]; solvent A: PC/DMC 1:2, at the dissolved concentration (about 0.1 M)): 0.02 mS/cm |
| Lithium Tetrakis (Pentafluoropropanoate) Borate [LB2] | 6.5 V | 0.6 M | 1.7 mS/cm | 0.6 M | 5.8 mS/cm | up to 13.4 | improvement of electroconductivity [2]: 2.4 times |
| Lithium Tetrakis (Trichloroacetate) Borate [LB3] | 6.4 V |  |  | 0.5 M | 4.3 mS/cm | up to 10 |  |
| lithium bis-benzenediolate [reference compound] |  |  |  |  |  |  | electroconductivity (result in words) [2]: no electroconductivity has been measurable |
